Here are results for three compounds from US11352349B2, “Type II topoisomerase inhibitors and methods of making and using thereof” (Ohio State Innovation Foundation, priority 2017, dated 2022).

The target of one test is T1, human topo II (Homo sapiens, UniProt P11388).
T1 construct: purchased Inspiralis, Norwich, UK
The experiment in a line: Topoisomerase II (alpha) decatenation assay. Format: biochemical. The note with it: activity remaining at 100 μM compound; read-out: hTopoll (% activity remaining at 100 μM). On the procedure:
(§1) A subset of analogs was used to assess the degree of inhibition of DNA gyrase or TopoIV (Inspiralis, Norwich, UK), both to establish the mechanism of action and to evaluate the relative balance of inhibitory activities (Table 1). A subset of compound was also assayed to determine the degree of inhibition of human topoisomerase II (Inspiralis, Norwich, UK)).
(§2) In all experiments, the activity of the enzymes was determined prior to the testing of the compounds and 1 unit (U) was defined as the amount of enzyme required to just fully supercoil, relax or decatenate the substrate (see explanation of gels). This amount of enzyme was initially used in determination of control inhibitor activity. These experiments were performed in duplicate.
(§3) For all assays the final DMSO concentration was 1%. 10 mM stocks of the compounds were serially diluted into 10% DMSO at 1 mM, 0.5 mM, 0.25 mM, 0.1 mM, 0.05 mM, 0.01 mM, 0.005 mM, 0.001 mM, 0.0005 mM, 0.0001 mM and 0.00005 mM. 3.0 μl of each dilution was added to a 30 μl assay.
(§4) Bands were visualised by ethidium staining for 20 minutes and destaining for 20 minutes. Gels were scanned using documentation equipment (GeneGenius, Syngene, Cambridge, UK) and % inhibition levels (where appropriate) were obtained with gel scanning software. (GeneTools, Syngene, Cambridge, UK)
Topoisomerase II (Alpha) Decatenation Assay
Each reaction was stopped by the addition of 30 μl chloroform/iso-amyl alcohol (26:1) and 30 μl Stop Dye, before being loaded on a 1.0% TAE gel run at 90V for 2 hours.

The test system of another test is S. aureus ATCC 29213. Put plainly: MIC by broth microdilution (CLSI), quality control strain S. aureus ATCC 29213. Format: cell-based, Staphylococcus aureus. The note with it: multiple values when multiple MIC assays were conducted; for MIC: Staphylococcus aureus, ATCC29213, S. aureus ATCC 29213. (In general: Dilution methods test growth across graded concentrations, often in twofold steps.)

In test [1] the target is T2, Staphylococcus aureus Topo IV (Staphylococcus aureus, UniProt P0C1S7+P0C1U9).
T2 construct: purchased Inspiralis, Norwich, UK
T2 sequence (P0C1S7 whole entry): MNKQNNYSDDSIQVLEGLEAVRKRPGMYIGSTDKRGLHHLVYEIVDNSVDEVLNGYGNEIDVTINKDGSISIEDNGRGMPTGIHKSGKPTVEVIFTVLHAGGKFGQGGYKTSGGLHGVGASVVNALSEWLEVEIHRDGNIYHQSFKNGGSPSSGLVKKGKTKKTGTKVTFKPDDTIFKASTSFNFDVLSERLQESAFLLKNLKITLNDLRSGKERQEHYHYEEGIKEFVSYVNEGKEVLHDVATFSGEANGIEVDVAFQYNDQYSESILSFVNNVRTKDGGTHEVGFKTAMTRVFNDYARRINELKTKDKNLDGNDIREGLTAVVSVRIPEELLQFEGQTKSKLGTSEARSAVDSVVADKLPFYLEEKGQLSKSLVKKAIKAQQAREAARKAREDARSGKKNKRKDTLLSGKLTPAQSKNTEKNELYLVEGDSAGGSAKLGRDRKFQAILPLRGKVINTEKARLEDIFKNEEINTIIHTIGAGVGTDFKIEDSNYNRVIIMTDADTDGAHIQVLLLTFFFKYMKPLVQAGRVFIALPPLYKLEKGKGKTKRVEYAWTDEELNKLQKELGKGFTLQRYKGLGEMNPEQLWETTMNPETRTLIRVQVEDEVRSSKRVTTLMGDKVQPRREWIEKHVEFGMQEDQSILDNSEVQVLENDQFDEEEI
T2 sequence (P0C1U9 whole entry): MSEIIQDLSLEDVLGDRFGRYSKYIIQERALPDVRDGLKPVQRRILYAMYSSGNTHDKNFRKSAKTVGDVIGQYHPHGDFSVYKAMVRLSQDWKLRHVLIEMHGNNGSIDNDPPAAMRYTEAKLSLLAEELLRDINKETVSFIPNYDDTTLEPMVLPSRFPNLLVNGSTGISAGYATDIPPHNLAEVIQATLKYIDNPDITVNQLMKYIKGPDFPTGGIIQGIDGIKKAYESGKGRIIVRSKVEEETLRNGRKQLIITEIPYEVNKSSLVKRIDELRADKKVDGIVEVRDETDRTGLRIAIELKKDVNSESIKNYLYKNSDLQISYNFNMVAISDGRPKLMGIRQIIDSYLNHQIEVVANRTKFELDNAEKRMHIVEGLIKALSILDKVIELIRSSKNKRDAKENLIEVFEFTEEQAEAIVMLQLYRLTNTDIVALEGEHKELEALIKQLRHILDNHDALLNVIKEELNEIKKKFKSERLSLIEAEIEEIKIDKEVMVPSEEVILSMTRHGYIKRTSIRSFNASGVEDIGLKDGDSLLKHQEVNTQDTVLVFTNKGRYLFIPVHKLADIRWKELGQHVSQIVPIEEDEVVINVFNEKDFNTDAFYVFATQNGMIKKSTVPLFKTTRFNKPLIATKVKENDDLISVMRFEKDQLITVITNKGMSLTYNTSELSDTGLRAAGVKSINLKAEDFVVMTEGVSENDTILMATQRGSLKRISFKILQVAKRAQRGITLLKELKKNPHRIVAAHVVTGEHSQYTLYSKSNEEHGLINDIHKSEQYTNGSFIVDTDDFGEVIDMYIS
The experiment in a line: Staphylococcus aureus Topo IV decatenation assay. It counts as biochemical. To be noted: S. aureus Topo IV decatenation; read-out: TopolV Decat IC50. On the procedure:
as §1, §2, §3, §4
Staphylococcus aureus Topo IV Decatenation Assay
1 U of Topo IV was incubated with 200 ng kDNA DNA in a 30 μl reaction at 37° C. for 30 minutes under the following conditions: 50 mM Tris.HCl (7.5), 5 mM MgCl2, 5 mM DTT, 1.5 mM ATP, 350 mM potassium glutamate and 0.05 mg/ml BSA.
Each reaction was stopped by the addition of 30 μl chloroform/iso-amyl alcohol (26:1) and 30 μl Stop Dye, before being loaded on a 1.0% TAE gel run at 70V for 2 hours.

The next test has as its system USA 300 strain of MRSA. Put plainly: MIC by broth microdilution, USA 300 strain of MRSA. It counts as cell-based, Staphylococcus aureus. The note with it: Staphylococcus aureus, multiple values when multiple MIC assays were conducted, read-out: MIC USA300. The method, then:
Minimum inhibitory concentrations were determined using the quality control strain S. aureus ATCC 29213 (Table 1) by the broth microdilution method according to guidelines of the Clinical and Laboratory Standards Institute (CLSI) (Cockerill, F. R.; et al., 2012, Methods for dilution antimicrobial susceptibility tests for bacteria that grow aerobically; approved standard-ninth edition. MA07-A9. Clinical and Laboratory Standard Institute, Wayne, Pa.). […] MICs for selected compounds were also determined using a USA 300 strain of MRSA (Hidron, et al., Lancet Infect. Dis. 2009, 9:384-392). Vancomycin was used as an additional control.

For test [2], the target named is T3, Staphylococcus aureus gyrase (Staphylococcus aureus, UniProt P0A0K8+P20831).
T3 construct: purchased Inspiralis, Norwich, UK
T3 sequence (P20831 whole entry): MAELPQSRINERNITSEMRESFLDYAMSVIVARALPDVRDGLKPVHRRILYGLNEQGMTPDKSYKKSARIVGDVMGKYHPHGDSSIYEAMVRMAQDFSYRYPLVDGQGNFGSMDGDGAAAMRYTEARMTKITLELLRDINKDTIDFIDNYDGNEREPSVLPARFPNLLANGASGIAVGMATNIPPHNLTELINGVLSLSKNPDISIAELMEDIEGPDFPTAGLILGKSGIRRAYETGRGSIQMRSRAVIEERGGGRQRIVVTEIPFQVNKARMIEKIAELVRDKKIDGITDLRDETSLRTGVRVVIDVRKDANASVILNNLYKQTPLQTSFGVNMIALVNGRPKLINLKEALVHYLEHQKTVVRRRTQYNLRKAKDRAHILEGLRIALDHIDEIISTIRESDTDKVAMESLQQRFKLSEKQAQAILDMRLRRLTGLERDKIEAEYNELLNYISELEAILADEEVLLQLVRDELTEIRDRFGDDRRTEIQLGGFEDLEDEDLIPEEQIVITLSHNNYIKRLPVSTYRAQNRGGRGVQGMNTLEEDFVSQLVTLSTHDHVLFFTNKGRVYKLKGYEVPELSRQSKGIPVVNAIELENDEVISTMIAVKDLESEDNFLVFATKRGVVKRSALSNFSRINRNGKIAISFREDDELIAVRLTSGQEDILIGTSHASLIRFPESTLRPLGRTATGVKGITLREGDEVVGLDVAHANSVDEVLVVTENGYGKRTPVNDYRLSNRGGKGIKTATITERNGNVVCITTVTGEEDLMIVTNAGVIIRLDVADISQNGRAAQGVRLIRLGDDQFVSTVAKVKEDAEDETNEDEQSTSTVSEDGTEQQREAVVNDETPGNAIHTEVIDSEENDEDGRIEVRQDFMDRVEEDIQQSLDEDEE
T3 sequence (P0A0K8 whole entry): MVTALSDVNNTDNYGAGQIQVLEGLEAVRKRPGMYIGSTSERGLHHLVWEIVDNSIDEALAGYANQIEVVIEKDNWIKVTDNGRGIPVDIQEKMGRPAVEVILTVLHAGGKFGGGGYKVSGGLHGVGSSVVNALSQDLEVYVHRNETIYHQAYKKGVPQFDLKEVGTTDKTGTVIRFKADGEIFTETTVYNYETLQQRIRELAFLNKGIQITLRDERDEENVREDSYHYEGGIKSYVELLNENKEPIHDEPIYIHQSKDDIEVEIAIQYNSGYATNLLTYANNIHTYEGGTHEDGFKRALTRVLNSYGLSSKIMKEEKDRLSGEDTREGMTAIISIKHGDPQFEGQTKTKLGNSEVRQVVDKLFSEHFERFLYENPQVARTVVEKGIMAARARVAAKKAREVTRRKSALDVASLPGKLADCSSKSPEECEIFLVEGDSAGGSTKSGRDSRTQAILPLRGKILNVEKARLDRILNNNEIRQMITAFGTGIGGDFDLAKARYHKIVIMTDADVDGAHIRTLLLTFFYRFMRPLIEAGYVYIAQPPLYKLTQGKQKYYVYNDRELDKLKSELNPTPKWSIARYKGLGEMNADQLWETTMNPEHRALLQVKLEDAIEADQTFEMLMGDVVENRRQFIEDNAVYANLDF
The experiment in a line: Staphylococcus aureus gyrase supercoiling assay. Format: biochemical. The note with it: S. aureus DNA gyrase supercoiling; read-out: Gyrase IC50. The method, then: as §1, §2, §3, §4
Staphylococcus aureus gyrase supercoiling
1 U of DNA gyrase was incubated with 0.5 μg of relaxed pBR322 DNA in a 30 μl reaction at 37° C. for 30 minutes under the following conditions: 40 mM HEPES. KOH (pH 7.6), 10 mM magnesium acetate, 10 mM DTT, 2 mM ATP, 500 mM potassium glutamate and 0.05 mg/ml BSA.
Each reaction was stopped by the addition of 30 μl chloroform/iso-amyl alcohol (26:1) and 30 μl Stop Dye (40% sucrose (w/v), 100 mM Tris.HCl (pH 7.5), 10 mM EDTA, 0.5 μg/ml bromophenol blue), before being loaded on a 1.0% TAE gel run at 70V for 2 hours.

≈ marks a conversion by molar mass, not a printed value.

T1 sequence (P11388 whole entry): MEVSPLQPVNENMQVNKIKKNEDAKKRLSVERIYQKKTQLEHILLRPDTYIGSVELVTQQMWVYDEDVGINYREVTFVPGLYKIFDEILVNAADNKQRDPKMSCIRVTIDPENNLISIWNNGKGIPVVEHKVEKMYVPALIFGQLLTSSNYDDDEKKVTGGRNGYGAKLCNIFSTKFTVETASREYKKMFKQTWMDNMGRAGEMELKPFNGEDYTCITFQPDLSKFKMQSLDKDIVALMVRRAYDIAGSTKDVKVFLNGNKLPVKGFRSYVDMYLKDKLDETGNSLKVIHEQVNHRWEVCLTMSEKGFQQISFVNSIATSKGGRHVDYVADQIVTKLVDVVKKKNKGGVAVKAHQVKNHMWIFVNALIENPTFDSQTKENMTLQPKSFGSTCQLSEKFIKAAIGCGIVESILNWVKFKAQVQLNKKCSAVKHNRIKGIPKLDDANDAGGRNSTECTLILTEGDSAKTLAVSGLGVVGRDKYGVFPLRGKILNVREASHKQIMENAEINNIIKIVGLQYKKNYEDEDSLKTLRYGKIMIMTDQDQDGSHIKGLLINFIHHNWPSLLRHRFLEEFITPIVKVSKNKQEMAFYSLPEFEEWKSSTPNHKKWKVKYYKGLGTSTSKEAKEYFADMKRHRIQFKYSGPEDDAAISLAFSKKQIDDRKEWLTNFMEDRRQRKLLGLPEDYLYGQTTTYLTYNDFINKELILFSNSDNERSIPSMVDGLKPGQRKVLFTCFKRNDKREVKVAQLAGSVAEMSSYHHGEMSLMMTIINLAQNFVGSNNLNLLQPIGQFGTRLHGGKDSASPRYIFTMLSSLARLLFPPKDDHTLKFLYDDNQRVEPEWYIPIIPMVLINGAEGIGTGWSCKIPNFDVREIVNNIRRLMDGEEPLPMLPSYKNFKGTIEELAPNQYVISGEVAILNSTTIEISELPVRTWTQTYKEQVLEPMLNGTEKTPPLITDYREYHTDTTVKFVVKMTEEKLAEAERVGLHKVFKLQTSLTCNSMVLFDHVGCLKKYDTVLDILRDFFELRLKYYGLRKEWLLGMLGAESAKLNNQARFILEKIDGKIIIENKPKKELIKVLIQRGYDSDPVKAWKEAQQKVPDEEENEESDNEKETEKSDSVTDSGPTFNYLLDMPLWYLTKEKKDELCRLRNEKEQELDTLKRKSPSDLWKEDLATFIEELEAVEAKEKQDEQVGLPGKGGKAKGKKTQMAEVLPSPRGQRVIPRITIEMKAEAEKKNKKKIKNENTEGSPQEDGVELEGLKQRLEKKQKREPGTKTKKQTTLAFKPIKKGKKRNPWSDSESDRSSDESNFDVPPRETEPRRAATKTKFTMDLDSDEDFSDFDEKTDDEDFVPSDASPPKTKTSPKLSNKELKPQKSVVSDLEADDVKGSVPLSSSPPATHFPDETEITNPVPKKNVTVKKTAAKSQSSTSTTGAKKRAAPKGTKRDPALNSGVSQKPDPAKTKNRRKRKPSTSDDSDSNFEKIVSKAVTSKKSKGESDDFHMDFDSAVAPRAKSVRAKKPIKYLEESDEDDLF

As a reminder, the remaining activity is the signal under treatment as a percentage of the control signal. By MIC is commonly meant the lowest concentration that inhibits growth of the organism. As usually defined, the IC50 is the midpoint of a concentration-inhibition curve. For the compound `COc1ccc2nccc(CC[C@H]3OC[C@H](NCc4ccc5c(c4)NC(=O)CO5)CO3)c2c1` [AB-0057, 6-(((2-(2-(6-methoxyquinolin-4-yl)ethyl)-trans-1,3-dioxan-5-yl)amino)methyl)-2H-benzo[b][1,4]oxazin-3(4H)-one], at human topo II, the remaining activity at 100 µM came out at 93%. The “MIC 29213” value with S. aureus ATCC 29213 (S. aureus ATCC 29213) was determined as 2 µg/mL (≈ 4.45 µM). Besides, the MIC with S. aureus ATCC 29213 and with USA 300 strain of MRSA was 1 µg/mL (≈ 2.22 µM) in each case. Further, the IC50 is greater than 100 µM in test [1] and 740 nM in test [2].
Take `COc1ccc2ncc(F)c(CC[C@H]3OC[C@H](NCc4ccc5c(n4)NC(=O)CS5)CO3)c2n1` [AB-0059, 6-(((2-(2-(3-fluoro-6-methoxy-1,5-naphthyridin-4-yl)ethyl)-trans-1,3-dioxan-5-yl)amino)methyl)-2H-pyrido[3,2-b][1,4]thiazin-3(4H)-one]: the remaining activity at 100 µM at human topo II came out at 95.7%. Also, the minimum inhibitory concentration (MIC) is no more than 0.5 µg/mL in the test on S. aureus ATCC 29213 and 0.25 µg/mL (≈ 0.515 µM) with USA 300 strain of MRSA. Further, the IC50 in test [1] is greater than 100 µM; in test [2], 170 nM.
In the same order, the values of `COc1ccc2nccc(CC[C@H]3OC[C@H](NCc4ccc5c(n4)NC(=O)CS5)CO3)c2c1` [AB-0021, 6-(((2-(2-(6-methoxyquinolin-4-yl)ethyl)-trans-1,3-dioxan-5-yl)amino)methyl)-2H-pyrido[3,2-b][1,4]thiazin-3(4H)-one] are 91.1%, 0.5 µg/mL (≈ 1.07 µM), 0.5 µg/mL (≈ 1.07 µM), greater than 100 µM and 590 nM.
